Assay results from the supplement of paper PMC10307832.

How the values were obtained:
Experiment in all cases: relative viability (nuclei count vs DMSO), 5 days (fraction); higher = more cells survive
IPA-3 + OSI-027 = compound: C1=CC=C2C(=C1)C=CC(=C2SSC3=C(C=CC4=CC=CC=C43)O)O [IPA-3] + COc1cccc2cc(-c3nc([C@H]4CC[C@H](C(=O)O)CC4)n4ncnc(N)c34)[nH]c12 [OSI-027] (partner 0.5 µM)
Method in brief: (§1)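 Each reported value is a median over duplicate plates. It expresses relative viability: treated-well nuclei count divided by vehicle-well nuclei count. Lung cancer cell lines in 1536-well plates were dosed by pin tool a day after seeding, alone with one drug or with a fixed anchor-drug dose plus five library-drug doses (not always all listed) in √10 steps, and nuclei were counted after 5 days.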

IPA-3 + Decitabine = compound: C1=CC=C2C(=C1)C=CC(=C2SSC3=C(C=CC4=CC=CC=C43)O)O [IPA-3] + Nc1ncn([C@H]2C[C@H](O)[C@@H](CO)O2)c(=O)n1 [Decitabine] (partner 2 µM)
Method in brief: as §1

Doramapimod + Navitoclax = compound: Cc1ccc(-n2nc(C(C)(C)C)cc2NC(=O)Nc2ccc(OCCN3CCOCC3)c3ccccc23)cc1 [Doramapimod] + CC1(C)CCC(c2ccc(Cl)cc2)=C(CN2CCN(c3ccc(C(=O)NS(=O)(=O)c4ccc(N[C@H](CCN5CCOCC5)CSc5ccccc5)c(S(=O)(=O)C(F)(F)F)c4)cc3)CC2)C1 [Navitoclax] (partner 0.5 µM)
Method in brief: as §1

Doramapimod + AZD7762 = compound: Cc1ccc(-n2nc(C(C)(C)C)cc2NC(=O)Nc2ccc(OCCN3CCOCC3)c3ccccc23)cc1 [Doramapimod] + NC(=O)Nc1cc(-c2cccc(F)c2)sc1C(=O)N[C@H]1CCCNC1 [AZD7762] (partner 0.2 µM)
Method in brief: as §1

| Cell Line | relative viability (IPA-3 + OSI-027; first compound 0.2 µM) | relative viability (IPA-3 + OSI-027; first compound 0.6325 µM) | relative viability (IPA-3 + OSI-027; first compound 2 µM) | relative viability (IPA-3 + OSI-027; first compound 6.325 µM) | relative viability (IPA-3 + OSI-027; first compound 20 µM) | relative viability (IPA-3 + Decitabine; first compound 0.2 µM) | relative viability (IPA-3 + Decitabine; first compound 0.6325 µM) | relative viability (IPA-3 + Decitabine; first compound 2 µM) | relative viability (IPA-3 + Decitabine; first compound 6.325 µM) | relative viability (IPA-3 + Decitabine; first compound 20 µM) | relative viability (Doramapimod + Navitoclax; first compound 0.02 µM) | relative viability (Doramapimod + Navitoclax; first compound 0.06325 µM) | relative viability (Doramapimod + Navitoclax; first compound 0.2 µM) | relative viability (Doramapimod + Navitoclax; first compound 0.6325 µM) | relative viability (Doramapimod + Navitoclax; first compound 2 µM) | relative viability (Doramapimod + AZD7762; first compound 0.02 µM) | relative viability (Doramapimod + AZD7762; first compound 0.06325 µM) | relative viability (Doramapimod + AZD7762; first compound 0.2 µM) | relative viability (Doramapimod + AZD7762; first compound 0.6325 µM) | relative viability (Doramapimod + AZD7762; first compound 2 µM) |
| --- | --- | --- | --- | --- | --- | --- | --- | --- | --- | --- | --- | --- | --- | --- | --- | --- | --- | --- | --- | --- |
| NCI-H1355 | 0.417 | 0.42 | 0.407 | 0.398 | 0.378 | 0.385 | 0.36 | 0.375 | 0.349 | 0.34 | 0.943 | 0.947 | 0.956 | 0.923 | 0.867 | 0.663 | 0.82 | 0.853 | 0.767 | 0.743 |
| EKVX | 0.649 | 0.68 | 0.738 | 0.728 | 0.786 | 0.342 | 0.396 | 0.26 | 0.297 | 0.332 | 0.677 | 0.915 | 0.936 | 0.895 | 0.934 | 0.679 | 0.676 | 0.717 | 0.635 | 0.678 |
| NCI-H441 | 0.819 | 0.613 | 0.527 | 0.54 | 0.426 | 0.268 | 0.257 | 0.205 | 0.234 | 0.21 | 0.857 |  | 0.558 | 0.818 | 0.353 | 1.07 | 1.28 | 1.21 | 0.98 | 0.961 |
| NCI-H1975 | 0.936 | 0.732 | 0.675 | 0.762 | 0.706 | 0.472 | 0.368 | 0.357 | 0.398 | 0.356 | 1.2 | 1.19 | 0.991 | 1.16 | 0.981 | 0.863 | 0.874 | 0.871 | 0.665 | 0.787 |
| HCC-78 | 0.419 | 0.407 | 0.641 | 0.382 | 0.353 | 0.74 | 0.665 | 0.618 | 0.548 | 0.649 | 0.834 | 0.81 | 0.81 | 0.874 | 0.777 | 0.518 | 0.642 | 0.705 | 0.756 | 0.75 |
| NCI-H2085 | 0.982 | 0.665 | 0.742 | 0.9 | 0.817 | 0.58 | 0.568 | 0.56 | 0.502 | 0.459 | 1.22 | 1.05 | 1.07 | 1.3 | 1.2 | 1.07 | 0.978 | 1.01 | 1.08 | 1.02 |
| H3255 | 0.609 | 0.566 | 0.677 | 0.508 | 0.62 | 0.634 | 0.571 | 0.577 | 0.548 | 0.632 | 0.531 | 0.586 | 0.553 | 0.636 | 0.479 | 1.01 | 1 | 0.972 | 0.956 | 0.762 |
| NCI-H2087 | 0.616 | 0.543 | 0.586 | 0.602 | 0.642 | 0.344 | 0.321 | 0.267 | 0.261 | 0.255 | 0.955 | 0.98 | 0.933 | 1.1 | 0.888 | 1.47 | 1.52 | 1.15 | 1.42 | 1.39 |
| LC-2-ad | 0.937 | 0.878 | 0.858 | 0.871 | 1.02 | 0.788 | 0.822 | 0.82 | 0.84 | 0.788 | 0.399 | 0.342 | 0.377 | 0.422 | 0.357 | 0.826 | 0.916 | 0.874 | 0.988 | 0.84 |
| PC-3 [JPC-3] | 0.8 | 0.774 | 0.76 | 0.655 | 0.735 | 0.849 | 0.837 | 0.813 | 0.779 | 0.855 | 0.923 | 0.767 | 0.737 | 0.869 | 0.723 | 1.12 | 0.912 | 0.882 | 0.899 | 0.786 |
| EBC-1 |  |  |  |  |  |  |  |  |  |  | 0.428 | 0.335 | 0.332 | 0.417 | 0.372 |  |  |  |  |  |
| HCC-15 | 0.765 | 0.685 | 0.636 | 0.688 | 0.718 | 0.754 | 0.572 | 0.612 | 0.61 | 0.629 | 0.657 | 0.629 | 0.726 | 0.691 | 0.634 | 1.35 | 1.17 | 1.23 |  | 1.17 |
| NCI-H1563 | 0.841 | 0.794 | 0.74 | 0.828 | 0.716 |  |  |  |  |  |  |  |  |  |  |  |  |  |  |  |
| COR-L 105 | 0.9 | 0.569 | 0.603 | 0.74 | 0.738 | 0.652 | 0.609 | 0.657 | 0.66 | 0.649 | 0.685 | 0.713 | 0.811 | 0.81 | 0.889 |  |  |  |  |  |
| NCI-H520 | 0.303 | 0.255 | 0.282 | 0.284 | 0.204 | 0.528 | 0.523 |  | 0.413 | 0.453 | 1 | 1.11 | 1.08 | 1.18 | 1.02 |  |  |  |  |  |
| LU99A | 0.273 | 0.323 | 0.286 | 0.323 | 0.315 | 0.974 | 0.813 | 0.881 | 0.867 | 0.879 | 0.662 | 0.645 | 0.818 | 0.977 | 0.798 | 0.349 | 0.37 | 0.339 | 0.339 | 0.326 |
| NCI-H1666 | 0.976 | 0.839 | 0.828 | 0.743 | 0.87 | 0.661 | 0.759 | 0.737 | 0.868 | 0.706 | 0.991 | 0.838 | 1.04 | 0.918 | 0.789 | 0.9 | 0.943 | 1.01 | 0.975 | 0.851 |
| NCI-H2170 | 0.733 | 0.691 | 0.721 | 0.672 | 0.677 | 0.462 | 0.421 | 0.424 | 0.445 | 0.439 | 0.512 | 0.495 | 0.539 | 0.601 | 0.478 | 0.828 | 0.948 | 0.889 | 1.07 | 0.851 |
